Legend:
Format in all cases: in vivo
[1] = system: lambsquarters (Chenopodium album); assay: Test B preemergence; conditions: scale 0 to 100, 0 no effect, 100 complete control
Method in brief: (§1)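 Pre: seeded pots sprayed, chemical in non-phytotoxic solvent/surfactant mix. Post: plants 2–18 cm, 1–4 leaf, same formulation. Greenhouse 13–15 d; visual % control vs untreated, 0–100 scale.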

[2] = system: giant foxtail (Setaria faberii); assay: Test B preemergence; conditions: scale 0 to 100, 0 no effect, 100 complete control
Method in brief: as §1

[3] = system: corn (Zea mays); assay: Test B preemergence; conditions: scale 0 to 100, 0 no effect, 100 complete control
Method in brief: as §1

[4] = system: rice (Oryza saliva); assay: Test B preemergence; conditions: Preemergence, Rate 500 g/ha; scale 0 to 100, 0 no effect, 100 complete control
Method in brief: as §1

[5] = system: morning glory (Ipomoea hederacea); assay: Test B preemergence; conditions: Preemergence, Rate 500 g/ha; scale 0 to 100, 0 no effect, 100 complete control
Method in brief: as §1

[6] = system: pigweed (Amaranthus retroflexus); assay: Test B preemergence; conditions: Preemergence, Rate 500 g/ha; scale 0 to 100, 0 no effect, 100 complete control
Method in brief: as §1

[7] = system: barnyardgrass (Echinochloa crus-galli); assay: Test B preemergence; conditions: scale 0 to 100, 0 no effect, 100 complete control
Method in brief: as §1

[8] = system: Surinam grass (Brachiaria decumbens); assay: Test B preemergence; conditions: scale 0 to 100, 0 no effect, 100 complete control
Method in brief: as §1

[9] = system: cocklebur (Xanthium strumarium); assay: Test B preemergence; conditions: scale 0 to 100, 0 no effect, 100 complete control
Method in brief: as §1

[10] = system: crabgrass (Digitaria sanguinalis); assay: Test B preemergence; conditions: scale 0 to 100, 0 no effect, 100 complete control
Method in brief: as §1

[11] = system: velvetleaf (Abutilon theophrasti); assay: Test B preemergence; conditions: Preemergence, Rate 500 g/ha; scale 0 to 100, 0 no effect, 100 complete control
Method in brief: as §1

[12] = system: smallflower flatsedge (Cyperus difformis); assay: Test C flooded paddy test; conditions: for Flatsedge plant response rating: Flooded Paddy, scale 0 to 100, 0 no effect, 100 complete control; for Plant response rating, Flatsedge: flooded paddy test, scale 0 to 100 (0 no effect, 100 complete control)
Method in brief: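 Rice and three paddy weeds were grown to the 2-leaf stage under flooded conditions, then treated and kept in a greenhouse for 12–14 days. Response was rated visually against untreated controls on a 0–100 scale, where 100 is complete control.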

[13] = system: Sunflower; assay: Test C preemergence; conditions: Rate 250 g/ha, visual evaluation after 12 to 14 days
[14] = system: lambsquarters (Chenopodium album); assay: Test B postemergence; conditions: 13 to 15 days
Method in brief: as §1

[15] = system: giant foxtail (Setaria faberii); assay: Test B postemergence; conditions: 13 to 15 days
Method in brief: as §1

[16] = system: corn (Zea mays); assay: Test B postemergence; conditions: 13 to 15 days
Method in brief: as §1

[17] = system: blackgrass (Alopecurus myosuroides); assay: Test B postemergence; conditions: 13 to 15 days
Method in brief: as §1

[18] = system: morning glory (Ipomoea hederacea); assay: Test B postemergence; conditions: 13 to 15 days
Method in brief: as §1

[19] = system: pigweed (Amaranthus retroflexus); assay: Test B postemergence; conditions: 13 to 15 days
Method in brief: as §1

[20] = system: barnyardgrass (Echinochloa crus-galli); assay: Test B postemergence; conditions: 13 to 15 days
Method in brief: as §1

[21] = system: Surinam grass (Brachiaria decumbens); assay: Test B postemergence; conditions: 13 to 15 days
Method in brief: as §1

[22] = system: cocklebur (Xanthium strumarium); assay: Test B postemergence; conditions: 13 to 15 days
Method in brief: as §1

[23] = system: wheat (Triticum aestivum); assay: Test B postemergence; conditions: 13 to 15 days
Method in brief: as §1

[24] = system: wild oat (Avena fatua); assay: Test B postemergence; conditions: 13 to 15 days
Method in brief: as §1

[25] = system: crabgrass (Digitaria sanguinalis); assay: Test B postemergence; conditions: 13 to 15 days
Method in brief: as §1

[26] = system: velvetleaf (Abutilon theophrasti); assay: Test B postemergence; conditions: 13 to 15 days
Method in brief: as §1

[27] = system: Sunflower; assay: Test C preemergence; conditions: Rate 125 g/ha, scale 0 to 100, 0 no effect, 100 complete control
[28] = Rate 125 g/ha, scale 0 (no effect) to 100 (complete control)
[29] = Rate 500 g/ha, scale 0 to 100, 0 is no effect, 100 is complete control

## CC(C)(C)c1ccn(C2SCN(c3cccc(OC(F)F)c3)C2=O)n1 (centres unmarked) [Compound 36]
[1]; Preemergence, Rate 500 g/ha
  Plant response rating, Lambsquarters: 100
[1]; preemergence, Rate 125 g/ha
  Plant response rating, Lambsquarters: 100
[2]; Preemergence, Rate 500 g/ha
  Plant response rating, Foxtail, Giant: 100
[2]; preemergence, Rate 125 g/ha
  Plant response rating, Foxtail, Giant: 100
[3]; Preemergence, Rate 500 g/ha
  Plant response rating, Corn: 0
[3]; preemergence, Rate 125 g/ha
  Plant response rating, Corn: 0
[4]
  Plant response rating, Rice: 90
[5]
  Plant response rating, Morningglory: 0
[6]
  Plant response rating, Pigweed: 100
[7]; Preemergence, Rate 500 g/ha
  Plant response rating, Barnyardgrass: 100
[7]; preemergence, Rate 125 g/ha
  Plant response rating, Barnyardgrass: 100
[8]; Preemergence, Rate 500 g/ha
  Plant response rating, Surinam grass: 100
[8]; preemergence, Rate 125 g/ha
  Plant response rating, Surinam grass: 70
[9]; Preemergence, Rate 500 g/ha
  Plant response rating, Cocklebur: 0
[9]; preemergence, Rate 125 g/ha
  Plant response rating, Cocklebur: 0
[10]; Preemergence, Rate 500 g/ha
  Plant response rating, Crabgrass: 100
[10]; preemergence, Rate 125 g/ha
  Plant response rating, Crabgrass: 100
[11]
  Plant response rating, Velvetleaf: 0
[12]; Rate 250 g/ha
  Flatsedge plant response rating: 100
[12]; Rate 500 g/ha
  Flatsedge plant response rating: 100
[12]; Rate 62 g/ha
  Plant response rating, Flatsedge: 100
[12]; Rate 125 g/ha
  Plant response rating, Flatsedge: 100
[13]
  Plant response rating (0 to 100), Sunflower: 30
[14]; [28]
  Plant response rating, Lambsquarters: 90
[14]; [29]
  Plant response rating, Lambsquarters: 100
[15]; [28]
  Plant response rating, Foxtail, Giant: 60
[15]; [29]
  Plant response rating, Foxtail, Giant: 90
[16]; [28]
  Plant response rating, Corn: 0
[16]; [29]
  Plant response rating, Corn: 70
[17]; [28]
  Plant response rating, Blackgrass: 0
[17]; [29]
  Plant response rating, Blackgrass: 0
[18]; [28]
  Plant response rating, Morningglory: 30
[18]; [29]
  Plant response rating, Morningglory: 40
[19]; [28]
  Plant response rating, Pigweed: 90
[19]; [29]
  Plant response rating, Pigweed: 100
[20]; [28]
  Plant response rating, Barnyardgrass: 90
[20]; [29]
  Plant response rating, Barnyardgrass: 100
[21]; [28]
  Plant response rating, Surinam grass: 0
[21]; [29]
  Plant response rating, Surinam grass: 50
[22]; [28]
  Plant response rating, Cocklebur: 20
[22]; [29]
  Plant response rating, Cocklebur: 60
[23]; [28]
  Plant response rating, Wheat: 0
[23]; [29]
  Plant response rating, Wheat: 0
[24]; [28]
  Plant response rating, Wild Oat: 0
[24]; [29]
  Plant response rating, Wild Oat: 20
[25]; [28]
  Plant response rating, Crabgrass: 80
[25]; [29]
  Plant response rating, Crabgrass: 100
[26]; [28]
  Plant response rating, Velvetleaf: 0
[26]; [29]
  Plant response rating, Velvetleaf: 60
[27]
  Plant response rating, Sunflower: 0

Source: patent publication US7138361B2, “Herbicidal heterocycles” (E. I. du Pont de Nemours and Company, priority 2000, dated 2006)
